Reference: article PMC8232704, “Hydrophobic Tagging-Mediated Degradation of Transcription Coactivator SRC-1” (International Journal of Molecular Sciences, 2021)
Bridge positions count the residues as written; N and C are the ends. Square brackets hold non-standard residues; d marks the D form. Peptide text beside a SMILES is read from it. N(1-adamantyl)Gly = O=C(O)CNC12CC3CC(CC(C3)C1)C2; Cha = N[C@@H](CC1CCCCC1)C(=O)O; S5 = C=CCCC[C@](C)(N)C(=O)O; PEG2 = NCCOCCOCCC(=O)O; PEG1 = NCCOCCC(=O)O; Ahx = NCCCCCC(=O)O; Ava = NCCCCC(=O)O; GABA = NCCCC(=O)O

How the values were obtained:
[1] = biological target: T1, PAS-B domain of human SRC-1 (residues 257–385) (Homo sapiens, UniProt Q15788); experiment: Competitive fluorescence polarization (FP) assay, fluorescein-labeled STAT-6 peptide binding to SRC-1; details: 100 nM fluorescein-labeled 15-mer STAT-6 peptide, 1 μM PAS-B domain of SRC-1, HEPES pH 7.4, SD from three independent experiments
T1 construct: PAS-B domain of human SRC-1 (residues 257–385); His6; made in house; host or cells: Rosetta E. coli
T1 sequence (Q15788 257-385): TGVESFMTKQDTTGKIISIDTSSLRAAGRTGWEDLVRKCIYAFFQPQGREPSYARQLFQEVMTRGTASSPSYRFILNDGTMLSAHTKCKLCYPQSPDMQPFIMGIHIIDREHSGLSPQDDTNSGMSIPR
Method: A plasmid expressing the PAS-B domain of human SRC-1 (residues 257–385) tagged with His6 was provided by John A. Robinson (University of Zürich at Switzerland). It was transformed into Rosetta E. coli cells. SRC-1 protein purification was performed as described previously.
After incubating 100 nM of fluorescein-labeled 15-mer STAT-6 peptide with 1 μM of PAS-B domain of SRC-1 in a binding buffer (50 mM HEPES pH 7.4, 150 mM NaCl, 3.4 mM EDTA, and 0.01% Tween 20) in a black Greiner 384-well plate for 30 min, indicated concentrations of YL2 and YL2-HyT1 through YL2-HyT6 were added to each well. After incubation for another 1.5 h, fluorescence polarization was measured on a Tecan Infinite F200 Pro microplate reader (excitation wavelength: 485 nm, emission wavelength: 535 nm). The Ki values of the compounds in the competition assay were determined using the following equation [43]. (1) Ki=[I]50/[L]50/KD+[P]0/KD+1 where [I]50 is the concentration of the free inhibitor at 50% inhibition, KD is the dissociation constant of the protein–ligand complex, [L]50 is the concentration of the free labeled ligand at 50% inhibition, and [P]0 is the concentration of the free protein at 0% inhibition.

[2] = Circular dichroism (CD), calculated helicity; format: physicochemical; details: 50 μM peptide in 30% PBS (pH 7.4) and 70% acetonitrile, calculated from CD spectra
Method: Lyophilized compounds (YL2 and YL2-HyT1 through YL2-HyT6) were dissolved in 30% PBS (pH 7.4) and 70% acetonitrile solution to a final concentration of 50 μM. CD spectra were measured with a Jasco J-815 CD spectropolarimeter using a quartz cuvette (2 mm path length). These spectra were averages of five successive accumulations with a scan rate of 100 nm/min. Raw data were converted in terms of per-residue molar ellipticity (deg·cm^2·dmol^−1·residue^−1) as calculated per mole of amide groups present and normalized by the molar concentration of peptides. Smoothing and correction of background spectra were performed with Origin Pro 8.0 (OriginLab Corporation, Northampton, MA, USA). Then α-helical propensities of YL2 and YL2-HyT1 through YL2-HyT6 were calculated as previously reported.

[3] = biological target: T2, SRC-1 in MDA-MB-231 cells (Homo sapiens, UniProt Q15788); experiment: Immunoblot analysis of cellular SRC-1 levels (SRC-1 degradation); format: cell-based; details: MDA-MB-231 cells, 18 h; for SRC-1 (%): normalized to GAPDH and DMSO controls
T2 construct: endogenous in cells; host or cells: MDA-MB-231
T2 sequence (Q15788 whole entry): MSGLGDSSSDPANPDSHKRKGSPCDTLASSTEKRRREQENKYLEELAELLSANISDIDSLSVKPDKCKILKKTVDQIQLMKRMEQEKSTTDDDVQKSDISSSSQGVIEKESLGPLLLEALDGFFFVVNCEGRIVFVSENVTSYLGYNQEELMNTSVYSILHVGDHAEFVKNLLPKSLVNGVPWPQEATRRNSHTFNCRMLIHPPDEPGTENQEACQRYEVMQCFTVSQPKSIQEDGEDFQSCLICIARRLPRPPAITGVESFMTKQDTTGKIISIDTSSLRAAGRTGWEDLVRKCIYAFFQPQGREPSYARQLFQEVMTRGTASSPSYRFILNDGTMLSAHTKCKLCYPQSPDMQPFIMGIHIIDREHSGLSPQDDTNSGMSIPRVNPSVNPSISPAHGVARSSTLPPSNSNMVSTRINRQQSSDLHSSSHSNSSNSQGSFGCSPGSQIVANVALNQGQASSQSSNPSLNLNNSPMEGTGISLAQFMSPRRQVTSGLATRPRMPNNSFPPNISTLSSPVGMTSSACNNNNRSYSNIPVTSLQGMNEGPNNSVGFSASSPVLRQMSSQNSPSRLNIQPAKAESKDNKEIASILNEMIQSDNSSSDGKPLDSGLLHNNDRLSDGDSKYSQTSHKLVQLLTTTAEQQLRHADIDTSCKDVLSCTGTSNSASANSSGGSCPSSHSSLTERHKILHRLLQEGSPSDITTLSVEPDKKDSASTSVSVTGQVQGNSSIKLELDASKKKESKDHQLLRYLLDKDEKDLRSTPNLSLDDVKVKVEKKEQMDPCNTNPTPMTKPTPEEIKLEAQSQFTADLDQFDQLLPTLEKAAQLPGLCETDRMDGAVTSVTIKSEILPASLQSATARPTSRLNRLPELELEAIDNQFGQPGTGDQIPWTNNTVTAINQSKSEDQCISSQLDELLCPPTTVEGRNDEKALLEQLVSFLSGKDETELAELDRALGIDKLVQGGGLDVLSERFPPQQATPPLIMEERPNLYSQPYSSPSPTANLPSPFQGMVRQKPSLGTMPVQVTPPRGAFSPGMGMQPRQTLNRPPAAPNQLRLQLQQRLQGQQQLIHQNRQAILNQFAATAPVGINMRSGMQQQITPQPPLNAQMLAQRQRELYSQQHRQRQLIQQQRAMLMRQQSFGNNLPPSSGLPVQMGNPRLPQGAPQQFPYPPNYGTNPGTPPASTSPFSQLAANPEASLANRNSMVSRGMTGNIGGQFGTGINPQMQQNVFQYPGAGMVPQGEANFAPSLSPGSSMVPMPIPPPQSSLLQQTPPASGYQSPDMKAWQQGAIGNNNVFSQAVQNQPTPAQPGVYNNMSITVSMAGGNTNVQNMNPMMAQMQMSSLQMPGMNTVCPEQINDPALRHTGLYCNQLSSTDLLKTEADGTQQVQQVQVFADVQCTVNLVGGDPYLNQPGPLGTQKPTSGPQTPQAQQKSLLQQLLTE
Method: MDA-MB-231 and HEK293T cells were cultured in a medium containing Dulbecco’s modified eagle medium (DMEM) supplemented with 1% penicillin–streptomycin (PS) and 10% FBS with 5% CO2 at 37 °C.
MDA-MB-231 cells were seeded into 6-well pates (Corning, 3506) at a density of 6 × 10^5 cell per well. After incubation at 37 °C for 24 h, cells were treated with synthesized compounds in Opti-MEM medium for 12, 18, or 24 h. Cells were washed twice with cold Dulbecco’s phosphate-buffered saline (DPBS) prior to cell lysis using a cell lysis buffer (1% Triton X-100, 150 mM NaCl, 50 mM Tris-HCl pH 7.6, 0.1% SDS, 0.5% sodium deoxycholate, and 1 × protease inhibitor cocktail) on ice. Cell lysates were centrifuged at 13,000 rpm at 4 °C for 15 min. The supernatant was collected, and protein concentration was determined using Pierce^TM 660nm protein assay. A 6 × SDS loading buffer was added to the cell lysate and incubated at 95 °C for 5 min. The same amount of protein was subjected to SDS-PAGE and transferred to PVDF membranes. After blocking membranes with 5% skim milk in TBST (Tris-buffered saline with 0.05% Tween 20), membranes were incubated with a primary antibody at 4 °C overnight. Membranes were then incubated with HRP-linked secondary antibody at rt for 1 h and developed with Pico ECL solution. In MG-132 and 17-AAG treatment experiments, MDA-MB-231 cells were cotreated with synthesized compounds and MG-132 (5 μM) or 17-AAG (1 μM) at 37 °C for 18 h.

[4] = test system: CSF-1 mRNA in MDA-MB-231 cells; experiment: RT-qPCR of CSF-1 mRNA; format: cell-based, human; details: 18 h, RT-qPCR normalized to 18S
Method: (§1) Quantitative real-time PCR was performed for CSF-1, E-cadherin, and 18S (as a reference gene) mRNAs. MDA-MB-231 cells (1.2 × 10^5 cells/well) were seeded into a 12-well plate and incubated at 37 °C with 5% CO2 for 24 h. These cells were treated with indicated compounds (YL2, adamantane, ND1-YL2, or YL2-HyT6) for 18 h in Opti-MEM medium. After cells were washed with cold DPBS, mRNAs were isolated from these cells using an AccuPrep Universal RNA extraction kit (Bioneer, Daejeon, Korea). Then 1.5 µg of mRNAs were reverse-transcribed using AccuPower RocketScript Cycle RT PreMix (Bioneer) to generate complementary DNAs. RT-qPCR for CSF-1, E-cadherin, and 18S was performed with a StepOnePlus Real-Time PCR System (Applied Biosystems, Waltham, MA, USA) and SYBR Green mix (Applied Biosystems) according to the manufacturer’s instructions with gene-specific primers (Table 1).

[5] = test system: E-cadherin mRNA in MDA-MB-231 cells; experiment: RT-qPCR of E-cadherin mRNA; format: cell-based, human; details: 18 h, RT-qPCR normalized to 18S
Method: as §1

SRC-1 [6] = details: in vitro binding activity; cited from earlier work
Source text: The SRC-1 degrader ND1-YL2 is a chimeric molecule composed of a ligand (YL2) for SRC-1 [31] and a UBR E3 ligase binder (Figure 2). […] ND1-YL2 was generated by conjugating a tetrapeptide RLAA, the N-degron peptide as a binder for UBR. Thus, this bifunctional molecule enables the recruitment of SRC-1 to UBR protein, thereby promoting the formation of a ternary complex for polyubiquitination and proteasomal degradation of SRC-1.

SRC-1 [7] = details: stapled peptide lacking the hydrophobic tag; cited from earlier work
Method: Cellular levels of SRC-1 were analyzed at various time points (12, 18, and 24 h) by immunoblotting.

[8] = design: method as in PMID 29090910; details: compared with the corresponding native peptide sequence; cited from earlier work
[9] = design: method as in PMID 29090910; details: cited from earlier work

Structure (SMILES)	Ki [1] [µM]	Helicity (%) [2] [%]	SRC-1 (%) ([3]; 10 μM compound)	SRC-1 (%) ([3]; 20 μM compound)	SRC-1 (%) ([3]; 50 μM compound)	CSF-1 mRNA expression level [4]	E-cadherin mRNA expression level [5]	Ki (SRC-1 [6]) [µM]	SRC-1 degradation (SRC-1 [7])	Proteolytic resistance [8]	Cell penetration ability [9]	SRC-1 degradation (immunoblot) ([3]; 20 μM)
CC(C)C[C@H](NC(=O)CCCCNC(=O)CNC12CC3CC(CC(C3)C1)C2)C(=O)N[C@@H](CC(C)C)C(=O)N1CCC[C@H]1C(=O)N1CCC[C@H]1C(=O)N[C@H](C(=O)N[C@@H](CCC(=O)O)C(=O)N[C@@H](CCC(N)=O)C(=O)N[C@@H](CC(=O)O)C(=O)N[C@@H](CC(C)C)C(=O)N[C@@]1(C)CCC/C=C\CCC[C@@](C)(C(=O)N[C@@H](Cc2ccc(O)cc2)C(N)=O)NC(=O)[C@H](CC2CCCCC2)NC(=O)[C@H](CC(C)C)NC(=O)[C@H](CCCCN)NC1=O)[C@@H](C)O [YL2-HyT2] (H-[N(1-adamantyl)Gly][Ava]LLPPTEQDL[S5]KL[Cha][S5]Y-NH2; staple (Z) 12-16; C-terminus assumed)	1.52 ± 0.087	18.7	92	85	66	–	–	–	–	–	–	–
CC(C)C[C@H](NC(=O)CCOCCOCCNC(=O)CNC12CC3CC(CC(C3)C1)C2)C(=O)N[C@@H](CC(C)C)C(=O)N1CCC[C@H]1C(=O)N1CCC[C@H]1C(=O)N[C@H](C(=O)N[C@@H](CCC(=O)O)C(=O)N[C@@H](CCC(N)=O)C(=O)N[C@@H](CC(=O)O)C(=O)N[C@@H](CC(C)C)C(=O)N[C@@]1(C)CCC/C=C\CCC[C@@](C)(C(=O)N[C@@H](Cc2ccc(O)cc2)C(N)=O)NC(=O)[C@H](CC2CCCCC2)NC(=O)[C@H](CC(C)C)NC(=O)[C@H](CCCCN)NC1=O)[C@@H](C)O [YL2-HyT5] (H-[N(1-adamantyl)Gly][PEG2]LLPPTEQDL[S5]KL[Cha][S5]Y-NH2; staple (Z) 12-16; C-terminus assumed)	0.549 ± 0.017	27.2	78	95	57	–	–	–	–	–	–	–
CC(C)C[C@H](NC(=O)CCCNC(=O)CNC12CC3CC(CC(C3)C1)C2)C(=O)N[C@@H](CC(C)C)C(=O)N1CCC[C@H]1C(=O)N1CCC[C@H]1C(=O)N[C@H](C(=O)N[C@@H](CCC(=O)O)C(=O)N[C@@H](CCC(N)=O)C(=O)N[C@@H](CC(=O)O)C(=O)N[C@@H](CC(C)C)C(=O)N[C@@]1(C)CCC/C=C\CCC[C@@](C)(C(=O)N[C@@H](Cc2ccc(O)cc2)C(N)=O)NC(=O)[C@H](CC2CCCCC2)NC(=O)[C@H](CC(C)C)NC(=O)[C@H](CCCCN)NC1=O)[C@@H](C)O [YL2-HyT1] (H-[N(1-adamantyl)Gly][GABA]LLPPTEQDL[S5]KL[Cha][S5]Y-NH2; staple (Z) 12-16; C-terminus assumed)	1.08 ± 0.032	24.1	98	99	91	–	–	–	–	–	–	–
CC(C)C[C@H](NC(=O)CCOCCNC(=O)CNC12CC3CC(CC(C3)C1)C2)C(=O)N[C@@H](CC(C)C)C(=O)N1CCC[C@H]1C(=O)N1CCC[C@H]1C(=O)N[C@H](C(=O)N[C@@H](CCC(=O)O)C(=O)N[C@@H](CCC(N)=O)C(=O)N[C@@H](CC(=O)O)C(=O)N[C@@H](CC(C)C)C(=O)N[C@@]1(C)CCC/C=C\CCC[C@@](C)(C(=O)N[C@@H](Cc2ccc(O)cc2)C(N)=O)NC(=O)[C@H](CC2CCCCC2)NC(=O)[C@H](CC(C)C)NC(=O)[C@H](CCCCN)NC1=O)[C@@H](C)O [YL2-HyT4] (H-[N(1-adamantyl)Gly][PEG1]LLPPTEQDL[S5]KL[Cha][S5]Y-NH2; staple (Z) 12-16; C-terminus assumed)	0.484 ± 0.052	29.9	83	53	70	–	–	–	–	–	–	–
CC(C)C[C@@H]1NC(=O)[C@H](CCCCN)NC(=O)[C@@](C)(NC(=O)[C@H](CC(C)C)NC(=O)[C@H](CC(=O)O)NC(=O)[C@H](CCC(N)=O)NC(=O)[C@H](CCC(=O)O)NC(=O)[C@@H](NC(=O)[C@@H]2CCCN2C(=O)[C@@H]2CCCN2C(=O)[C@H](CC(C)C)NC(=O)[C@@H](N)CC(C)C)[C@@H](C)O)CCC/C=C\CCC[C@@](C)(C(=O)N[C@@H](Cc2ccc(O)cc2)C(N)=O)NC(=O)[C@H](CC2CCCCC2)NC1=O [YL2] (H-LLPPTEQDL[S5]KL[Cha][S5]Y-NH2; staple (Z) 10-14; N-terminus assumed)	–	32.5	–	–	–	no effect	no effect	0.14	unable to induce SRC-1 degradation	increased proteolytic resistance	reasonable cell penetration ability	–
C1C2CC3CC1CC(C2)C3 [adamantane]	–	–	–	–	–	no effect	no effect	–	–	–	–	no effect
CC(C)C[C@H](NC(=O)CCCCCNC(=O)CNC12CC3CC(CC(C3)C1)C2)C(=O)N[C@@H](CC(C)C)C(=O)N1CCC[C@H]1C(=O)N1CCC[C@H]1C(=O)N[C@H](C(=O)N[C@@H](CCC(=O)O)C(=O)N[C@@H](CCC(N)=O)C(=O)N[C@@H](CC(=O)O)C(=O)N[C@@H](CC(C)C)C(=O)N[C@@]1(C)CCC/C=C\CCC[C@@](C)(C(=O)N[C@@H](Cc2ccc(O)cc2)C(N)=O)NC(=O)[C@H](CC2CCCCC2)NC(=O)[C@H](CC(C)C)NC(=O)[C@H](CCCCN)NC1=O)[C@@H](C)O [YL2-HyT3] (H-[N(1-adamantyl)Gly][Ahx]LLPPTEQDL[S5]KL[Cha][S5]Y-NH2; staple (Z) 12-16; C-terminus assumed)	0.681 ± 0.054	24.9	73	58	50	–	–	–	–	–	–	–
